From patent US4316011A, “Rhodomycin antibiotics” (Sanraku-Ocean Co., Ltd., priority 1979, dated 1982)
Values after ≈ are worked out from the molar mass of the structure shown. Where two headings read alike, the source gives them in different places.

Legend:
L 1210 leukemia = assay: Antitumor effect on L 1210 leukemia in mice; type: in vivo, mice (CDF1); conditions: i.p., once daily for 10 days from 24 hours after inoculation of 1×10^6 L 1210 cells i.p.
Experimental: For example, when CDF1 mice weighing 18 to 22 grams were inoculated with 1×10^6 cells of L 1210 cells intraperitoneally and the compound was administered intraperitoneally once daily for 10 days consecutively 24 hours after inoculation, the survival time of mice was over 200% by T/C(%) at optimum dose as shown in the following table.

[1] = Acute toxicity in mice, single intravenous injection; conditions: mouse, in vivo
[2] = system: RNA synthesis in murine leukemic L 1210 cells; assay: RNA biosynthesis in L 1210 cells (14C-uridine incorporation); type: cell-based; conditions: for IC50: Mus musculus, L1210, 15 min with compound then 60 min 14C-uridine, 37° C.; for Inhibition ratio DNA/RNA: ratio of IC50 for DNA synthesis to IC50 for RNA synthesis
Experimental: 50% growth inhibition concentration of the compound over controls was determined. […] The cells were cultured for 15 min. at 37° C. after the compounds according to the present invention at various concentrations were added, and then ^14 C-uridine (0.05 μCi/ml) or ^14 C-thymidine (0.05 μCi/ml) was added and incubated for further 60 min. at 37° C. After stopping the pulse-labeling by addition of 10% trichloroacetic acid (TCA) solution to the reaction mixture, acid-insoluble materials were precipitated, washed three times with 5 to 10% TCA, and dissolved in a small amount of formic acid.

[3] = system: DNA synthesis in murine leukemic L 1210 cells; assay: DNA biosynthesis in L 1210 cells (14C-thymidine incorporation); type: cell-based; conditions: Mus musculus, L1210, 15 min with compound then 60 min 14C-thymidine, 37° C.
Experimental: (§1) In an example, L 1210 cells were inoculated in RPMI (Rosewell Park Memorial Institute) 1640 medium containing 20% calf serum at the cell density of 5×10^4 cells/ml, and the compound in the present invention was simultaneously added to the medium at the concentration of 0.1 and 0.5 μg/ml and incubated at 37° C. in a CO2 incubator. 50% growth inhibition concentration of the compound over controls was determined. L 1210 cells as described above were also inoculated at 5×10^5 cells in RPMI 1640 medium containing 10% calf serum and incubated at 37° C. for 1 to 2 hours in a CO2 incubator. The cells were cultured for 15 min. at 37° C. after the compounds according to the present invention at various concentrations were added, and then ^14 C-uridine (0.05 μCi/ml) or ^14 C-thymidine (0.05 μCi/ml) was added and incubated for further 60 min. at 37° C. After stopping the pulse-labeling by addition of 10% trichloroacetic acid (TCA) solution to the reaction mixture, acid-insoluble materials were precipitated, washed three times with 5 to 10% TCA, and dissolved in a small amount of formic acid. Then, radioactivity was determined, and inhibitory effects on the DNA and RNA biosynthesis were indicated by the 50% inhibition concentration (IC50) of the incorporation of radioactivity over controls.

[4] = system: murine leukemic L 1210 cells; assay: Growth inhibition of L 1210 cells in culture; type: cell-based; conditions: for IC50: Mus musculus; for growth of murine leukemic cells (in words): murine leukemic L 1210 cells in culture
Experimental: as §1

[5] = L1210, L 1210 cells, RPMI 1640, 20% calf serum, 5×10^4 cells/ml, 37° C., read-out: IC50 Growth

COc1cccc2c1C(=O)c1c(O)c3c(c(O)c1C2=O)C[C@@](O)(C(=O)CO)C[C@@H]3O[C@H]1C[C@H](N)[C@H](O)[C@H](C)O1 [Adriamycin, reference compound]
T/C (survival time) (L 1210 leukemia; opt. dose 1 mg/kg/day): 286% | LD50 [1]: 14.2 mg/kg

CCC1(O)CC(OC2CC(N(C)C)C(OC3CC(O)C(OC4CCC(=O)C(C)O4)C(C)O3)C(C)O2)c2c(cc3c(c2O)C(=O)c2c(O)ccc(O)c2C3=O)C1O (stereo not drawn) [β-Pyrromycin RDC]
IC50 [2]: 1.5 µg/mL (≈ 1.91 µM) | Inhibition ratio DNA/RNA [2]: 1.3 | IC50 [3]: 2 µg/mL (≈ 2.55 µM) | T/C (survival time) (L 1210 leukemia; opt. dose 20 mg/kg/day): 202% | IC50 [4, 5]: 1 µg/mL (≈ 1.27 µM) | LD50 [1]: 85.5 mg/kg

CCC1(O)CC(OC2CC(N(C)C)C(OC3CC(O)C(OC4CCC(=O)C(C)O4)C(C)O3)C(C)O2)c2c(O)c3c(c(O)c2C1O)C(=O)c1cccc(O)c1C3=O (stereo not drawn) [β-Rhodomycin RDC]
IC50 [2]: 0.15 µg/mL (≈ 0.191 µM) | Inhibition ratio DNA/RNA [2]: 3.8 | IC50 [3]: 0.57 µg/mL (≈ 0.725 µM) | T/C (survival time) (L 1210 leukemia; opt. dose 2 mg/kg/day): 306% | IC50 [4, 5]: 0.01 µg/mL (≈ 0.0127 µM) | growth of murine leukemic cells (in words) [4]: suppressed the growth of murine leukemic cells at extremely low concentration | LD50 [1]: 28 mg/kg

CCC1(O)CCc2c(O)c3c(c(O)c2C1OC1CC(N(C)C)C(OC2CC(O)C(OC4CCC(=O)C(C)O4)C(C)O2)C(C)O1)C(=O)c1cccc(O)c1C3=O (stereo not shown) [γ-Rhodomycin RDC]
IC50 [2]: 0.28 µg/mL (≈ 0.364 µM) | Inhibition ratio DNA/RNA [2]: 3.0 | IC50 [3]: 0.85 µg/mL (≈ 1.1 µM) | T/C (survival time) (L 1210 leukemia; opt. dose 2 mg/kg/day): 209% | IC50 [4, 5]: 0.11 µg/mL (≈ 0.143 µM) | LD50 [1]: 39.8 mg/kg

CCC1(O)CCc2c(O)c3c(c(O)c2C1OC1CC(N(C)C)C(OC2CC(O)C(OC4CCC(O)C(C)O4)C(C)O2)C(C)O1)C(=O)c1cccc(O)c1C3=O (stereo not shown) [γ-Rhodomycin RDRs]
IC50 [2]: 0.3 µg/mL (≈ 0.389 µM) | Inhibition ratio DNA/RNA [2]: 2.3 | IC50 [3]: 0.7 µg/mL (≈ 0.907 µM) | T/C (survival time) (L 1210 leukemia; opt. dose 2 mg/kg/day): 203% | IC50 [4, 5]: 0.09 µg/mL (≈ 0.117 µM) | LD50 [1]: 40.6 mg/kg

CCC1(O)CC(OC2CC(N(C)C)C(OC3CC(O)C(OC4CCC(=O)C(C)O4)C(C)O3)C(C)O2)c2c(O)c3c(c(O)c2C1C(=O)OC)C(=O)c1c(O)ccc(O)c1C3=O (stereo not shown) [ε-Isorhodomycin RDC]
RNA synthesis of L 1210 cells (in words) [2]: inhibited specifically RNA synthesis of L 1210 cells | IC50 [2]: 0.11 µg/mL (≈ 0.13 µM) | Inhibition ratio DNA/RNA [2]: 11.1 | IC50 [3]: 1.25 µg/mL (≈ 1.48 µM) | T/C (survival time) (L 1210 leukemia; opt. dose 2 mg/kg/day): 235% | IC50 ([4]; L1210, read-out: IC50 Growth): 0.007 µg/mL (≈ 0.0083 µM) | growth of murine leukemic cells (in words) [4]: suppressed the growth of murine leukemic cells at extremely low concentration | LD50 [1]: 28.2 mg/kg

CCC1(O)CC(OC2CC(N(C)C)C(OC3CC(O)C(OC4CCC(=O)C(C)O4)C(C)O3)C(C)O2)c2c(O)c3c(c(O)c2C1C(=O)OC)C(=O)c1cccc(O)c1C3=O (stereo not shown) [ε-Rhodomycin RDC]
RNA synthesis of L 1210 cells (in words) [2]: inhibited specifically RNA synthesis of L 1210 cells | IC50 [2]: 0.08 µg/mL (≈ 0.0966 µM) | Inhibition ratio DNA/RNA [2]: 8.8 | IC50 [3]: 0.7 µg/mL (≈ 0.846 µM) | T/C (survival time) (L 1210 leukemia; opt. dose 2 mg/kg/day): 240% | IC50 ([4]; L1210, read-out: IC50 Growth): 0.01 µg/mL (≈ 0.0121 µM) | growth of murine leukemic cells (in words) [4]: suppressed the growth of murine leukemic cells at extremely low concentration | LD50 [1]: 32.5 mg/kg
